This is an account of results in patent publication US7314858B2, “Retrocyclins: antiviral and antimicrobial peptides” (priority 2001, dated 2008).

One data set deals with HIV-1 strain IIIB. Kind of data set: HIV-1 IIIB infection of CD4+ PBMC, p24 antigen ELISA. Type of data set: cell-based. Conditions: for inhibition of HIV-1 replication (p24): CD4+ PBMC, IIIB (X4), peptide 10-20 μg/ml. Put shortly:
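CD4+-selected PBMC from seronegative donors, CD3-CD8 bispecific antibody-stimulated, maintained in R10-50 media with IL-2, exposed to HIV-1 IIIB for 3 h with or without 20 μg/ml retrocyclin, then washed and cultured 9 more days. Infection measured as p24 antigen by ELISA (sensitivity 10 pg/ml); duplicate experiments averaged.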
(ELISA stands for enzyme-linked immunosorbent assay.)

The subject of the next data set is HIV-1 strain JR-CSF. Description: HIV proviral DNA formation, quantitative real time PCR in CD4+-selected PBMC. The format is cell-based. The settings on record: 20 μg/ml, MOI 0.1. The source says: FIG. 13. Retrocyclin and RC-101 inhibited the formation of HIV proviral DNA. Retrocyclin and RC-101 inhibited the formation of DNA from both early events (total HIV DNA) and later events (full-length HIV DNA) of reverse transcription. Data are an average of 2 experiments, except for RC-101 (1 experiment). “HI virus” is a heat-inactivated virus control for background levels of viral DNA.
Retrocyclin inhibits HIV replication at an early step (reverse transcription or before). To determine whether retrocyclin blocked the formation of proviral DNA in HIV-JR-CSF-inoculated CD4^+-selected PBMC, quantitative real time PCR was performed. This method is more sensitive than measuring p24 release and can detect infection even when p24 values may be affected by virus carried over from the original inoculum. CD4^+-selected PBMC (10^6 cells) were incubated in 250 μl at 37° C./5% CO2 for 3 hr with either HIV-1 strain JR-CSF (MOI=0.1), heat-inactivated virus (background control), JR-CSF+20 μg/ml retrocyclin or JR-CSF+20 μg RC-101. Cells were washed and resuspended in 1 ml R10-50 media, and incubated for an additional 9 hours. Following incubation, cells were pelleted at 300×g, removed of overlying supernatant, and stored at −80° C. until analyzed by real time PCR.

The target of another data set is gp120 (BaL). Description: Surface plasmon resonance binding. Also on record: species or system HIV-1. The settings on record: immobilized gp120(BaL). The source says: Surface plasmon resonance. Recombinant human soluble CD4 (full-length 45 kDa glycosylated ectodomain) was produced by ExpresSF+S. frugiperda cells in serum-free medium (Protein Sciences Corporation, Meriden, Conn.). Glycosylated HIV-1 gp120 (LAV) envelope glycoprotein (Catalog No. 2003-LAV) was purchased from the same source. Recombinant HIV-1BaL was obtained through the AIDS Research and Reference Reagent Program, Division of AIDS, National Institute of Allergy and Infectious Disease, NIH.
Surface plasmon resonance (SPR) experiments were done with a Biacore 2000 system (Biacore, Inc., Piscataway, N.J.). The running buffer (pH 7.4) contained 10 mM HEPES, 150 mM NaCl, 3 mM EDTA and 0.005% polysorbate 20. The immobilized proteins (gp120-LAV and CD4) were dissolved at 20 μg/ml in 10 mM sodium acetate, pH 5.0 and immobilized on a Biacore CM5 sensor chip using the amine coupling method. The chip was activated by mixing 400 mM EDC (N-ethyl-N-(3-dimethylaminopropyl)-carbodiimide hydrochloride) and 100 mM N-hydroxysuccinimide. […] Residual reactive groups on the chip surface were blocked using 1.0 Methanolamine/HCl, pH 8.5.
The flow cell chip used as a control lacked immobilized protein but was otherwise treated as above. Signals were corrected for nonspecific binding by subtracting the control signal. To regenerate the chip surface, bound ligands were removed with 10 mM HCl. Data were analyzed with BIAevaluation 3.1 software. Curve fitting was done with an assumption of 1:1 binding.
In those experiments, biosensor chips containing immobilized gp120 or CD4 were perfused with a 1 μg/ml solution of the peptides, and binding was measured by surface plasmon resonance. […] No binding studies were performed with gp120 preparations derived from non-B HIV-1 subtypes.

Another data set concerns CD4+ PBMC. Conditions: for average number of cells: 20 μg/ml peptide, CD4+ PBMC; for cytotoxicity (trypan blue exclusion): 20 μg/ml, HIV-1-infected CD4+ PBMC.
The next data set has as its system H9 cells. Kind of data set: Cytotoxicity by trypan blue exclusion. The settings on record: for cytotoxicity (trypan blue exclusion): 20 μg/ml, HIV-1-infected H9 cells.

Each structure is given as a SMILES string. “Also recorded” adds a separate entry of the source. Read-outs that look alike come from different tables or passages of the source. Where a SMILES comes first, the peptide text is derived from it. Bridges are numbered along the chain shown (N, C = ends).

Regarding `CC[C@H](C)[C@@H]1NC(=O)CNC(=O)[C@H](CCCNC(=N)N)NC(=O)CNC(=O)[C@@H]2CSSC[C@H](NC1=O)C(=O)N[C@@H](CCCNC(=N)N)C(=O)N[C@H]1CSSC[C@H](NC(=O)[C@H](CCCNC(=N)N)NC(=O)[C@@H]3CSSC[C@H](NC(=O)[C@H]([C@@H](C)CC)NC1=O)C(=O)NCC(=O)N[C@@H](CCCNC(=N)N)C(=O)NCC(=O)N[C@@H]([C@@H](C)CC)C(=O)N3)C(=O)N[C@@H]([C@@H](C)CC)C(=O)N2` [RC-100, Retrocyclin] (cyclo(GICRCICGRGICRCICGR); disulfide 3-16, 5-14, 7-12), in the data set with HIV-1 strain IIIB (20 μg/ml added 24 hours after initial infection), the “reduction of p24 concentration” value is on record as around 1000 fold. The “inhibition of HIV-1 replication (p24)” value in the data set with HIV-1 strain IIIB is “complete suppression; also recorded: uniformly protective”. Besides, in the data set with HIV-1 strain JR-CSF, the “formation of HIV-1 proviral DNA” value is given as “inhibited the formation of HIV-1 proviral DNA”. Also, the Kd (usually the concentration at which binding is half-saturated) on gp120 (BaL) was 29.2 nM. Further, in the data set on gp120 (BaL), the koff is listed as 4.12 × 10^−3. Also, the kon in the data set with gp120 (BaL) was 14.1 × 10^4. Moreover, the “average number of cells” value with CD4+ PBMC (IIIB) is 1.68e+06 mL⁻¹; in the data set with CD4+ PBMC (JR-CSF), 1.58e+06 mL⁻¹; with CD4+ PBMC (no virus), 980000 mL⁻¹; in the data set on H9 cells (20 μg/ml peptide, H9, IIIB), 1.2e+06 mL⁻¹. The “cytotoxicity (trypan blue exclusion)” value in the data set on CD4+ PBMC and with H9 cells was “neither 20 μg/ml retrocyclin nor RC-101 were cytotoxic” throughout.

Turning to `CC[C@H](C)[C@@H]1NC(=O)CNC(=O)[C@H](CCCCN)NC(=O)CNC(=O)[C@@H]2CSSC[C@H](NC1=O)C(=O)N[C@@H](CCCNC(=N)N)C(=O)N[C@H]1CSSC[C@H](NC(=O)[C@H](CCCNC(=N)N)NC(=O)[C@@H]3CSSC[C@H](NC(=O)[C@H]([C@@H](C)CC)NC1=O)C(=O)NCC(=O)N[C@@H](CCCNC(=N)N)C(=O)NCC(=O)N[C@@H]([C@@H](C)CC)C(=O)N3)C(=O)N[C@@H]([C@@H](C)CC)C(=O)N2` [RC-101, R9K-Retrocyclin], the “inhibition of HIV-1 replication (p24)” value in the data set with HIV-1 strain IIIB is “as active as retrocyclin”. Also, the “formation of HIV-1 proviral DNA” value with HIV-1 strain JR-CSF is reported as “inhibited the formation of HIV-1 proviral DNA”. At gp120 (BaL), binding was characterised by a dissociation constant (Kd) of 20.5 nM, the koff was 5.55 × 10^−3 and the kon is listed as 27.0 × 10^4. Moreover, the “cytotoxicity (trypan blue exclusion)” value in the data set on CD4+ PBMC is “neither 20 μg/ml retrocyclin nor RC-101 were cytotoxic”. For the same compound, in the data set on H9 cells, the “cytotoxicity (trypan blue exclusion)” value was “neither 20 μg/ml retrocyclin nor RC-101 were cytotoxic”.
